Consider eight molecules from patent publication US11767298B2, “Substituted benzimidazoles as inhibitors of transforming growth factor-β kinase” (Duke University, priority 2016, dated 2023).

For orientation: IC50 means the concentration that inhibits the measured activity by half.

“And” between values parts separate entries of the source, which are not always exact repeats. Equal entries are not always repeated. Where two headings read alike, the source gives them in different places.

One series deals with GFP-PfPK9 (Plasmodium falciparum, UniProt Q8IEG4). In words: ATP-competitive binding assay (ATP-sepharose pull-down, FLECS). The procedure:
Primary small-molecule screen. A small-molecule screen was performed similar to a previously reported fluorescence linked enzyme chemoproteomic strategy (FLECS). Briefly, HEK293-GFP-PfPK9 cells were grown in 182-cm^2 tissue culture flasks (Genesee Scientific) and harvested at ˜80% cell confluency. Before assays the culture medium was aspirated, cells were rinsed with ice cold PBS and then they were removed with a cell scraper. Cells were pelleted by centrifugation (2,000 rpm, 4° C., 2 min) and immediately lysed for assays. The pellet was suspended in buffer A (25 mM HEPES, pH 7.4, 150 mM NaCl, 60 mM MgCl2, 1 mM DTT) with 1 μM microcystin, 0.1% Triton X-100 plus a Roche Complete protease inhibitor tablet and then placed on ice for 30 min to facilitate lysis. The supernatant was collected after centrifugation (4,300 rpm, 4° C., 5 min) and used in subsequent screening and titrations experiments. For screening, the supernatant was added to ATP-sepharose beads (1:1) and incubated with agitation at 4° C. for at least 1 hr to allow binding. Following this incubation, the mixture was centrifuged, the ATP resin was washed with 9 column volumes of buffer A with 1 M NaCl and then 9 column volumes of buffer A. The ATP-sepharose medium was reconstituted as a 1:1 slurry with buffer A and then added to 96-well filter plates (50 μL/well) (Corning #3505) using a multichannel pipette (Rainin). The filter plate was on top of black 96-well catch plates (Corning #3915). An ATP dilution series (1-200 mM) was added to each plate as a positive control and DMSO was the negative control. Compounds and controls were all added to 50 μL per well in buffer A. For screening, compounds were tested in singlicate at 500 μM. The final DMSO concentration in every well was 5%. The fluorescence intensity in each well was measured on an EnVision system. Data analyses of screens were carried out in EXCEL (Microsoft, Corp.) and actives were identified as 2×background signal.
All screening positives that were verified with Western blot analysis were purchased from Enamine or Vitas-M laboratory. The purity of compounds 1-5 (shown below) was verified by high-resolution MS (Agilent). Compounds were tested in 8-point dose-response (0-500 μM) experiments in duplicate, essential as described above. The fluorescence intensity in each well was measured using an EnVision system. Dose-response analysis was performed with GraphPad Prism to acquire EC50 values. Determined EC50 values were used to calculate the observed PfPK9 Kd and reported values are the average of 2-3 independent experiments.
Stable cell line generation. The P. falciparum PK9 gene (PlasmoDB accession #PF3D7_1315100) was cloned into the pEGFP-C1 mammalian expression vector (Clontech) in frame with a […] GFP tag. For screening, HEK293 cells were transfected with the resulting PfPK9-pEGFP-C1 vector to generate HEK293-GFP-PfPK9 expressing cells using X-tremeGENE HP transfection reagent (Roche) per the manufacturer instructions. Briefly, the culture medium was replaced at 48 hours post-transfection with medium supplemented with 1 mg/mL G418 sulfate (Life Technologies) to select for stably transfected cells. Following stable cell selection, fluorescence activated cell sorting (FACS) was used to enrich for GFP-PfPK9 expressing cells. Subsequently, FACS sorted HEK293-GFP-PfPK9 cells were cultured with medium supplemented with 0.5 mg/mL G418 sulfate for all following experiments. Protein expression was verified by Western blot analysis probing for anti-GFP and by fluorescence intensity using an EnVision (PerkinElmer) system.
All 14 positive molecules were also tested for their binding affinity to PfPK9 using an optimized ATP-competitive binding assay. EC50 values ranging from low μM to low mM were observed and these EC50 values were used to derive dissociation constants as described previously. […]

A further series addresses T1, TAK1-TAB1 (Homo sapiens, UniProt O43318).
T1 sequence (O43318 with tags, fused parts or gaps limits assumed): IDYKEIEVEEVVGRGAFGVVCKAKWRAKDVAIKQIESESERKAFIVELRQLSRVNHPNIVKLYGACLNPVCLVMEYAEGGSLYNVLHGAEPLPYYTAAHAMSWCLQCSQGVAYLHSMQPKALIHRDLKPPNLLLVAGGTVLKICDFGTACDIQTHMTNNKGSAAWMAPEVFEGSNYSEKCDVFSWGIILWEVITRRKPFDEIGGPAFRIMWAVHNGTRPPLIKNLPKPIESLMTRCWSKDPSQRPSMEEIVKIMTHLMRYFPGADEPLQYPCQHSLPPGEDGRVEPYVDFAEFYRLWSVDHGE
Briefly: TAK1-TAB1 kinase assay ([32P]-ATP). It counts as biochemical. The following applies: compared to 206 (FIG. 14). As for the experimental part: Kinase Assay. […] In brief, TAK1-TAB1 (50 ng/well) was incubated with 5 μM ATP containing radiolabeled [^32P]-ATP in the presence of 300 μM substrate peptide ([…]) in a final volume of 40 μl in the presence of buffer (containing 50 mM Tris pH 7.5, 0.1 mM EGTA, 0.1% β-Mercaptoethanol, 10 mM magnesium acetate, 0.5 mM MnCl) and indicated compounds. The reaction was let go for 10 min and stopped with 10 μl concentrated H3PO4. The remaining activity was measured using a scintillation counter. Dose-response curves were repeated 3 times. For kinetic mechanistic studies, experiments were repeated two times and averaged.
A challenge in designing chemical biology probes lies in choosing an appropriate ligand for a protein target and developing chemistry that allows attachment of a linker without disrupting activity of the ligand. […] The focus was on modifying the aminobenzimidazole moiety.

For another series, the system named is HepG2 cells. Briefly: HepG2 cell viability / cytotoxicity. It counts as cell-based, human. The procedure:
(§1) Cell-based anti-Plasmodium assays. For liver stage assays, 15,000 HepG2 or 8,000 Huh7 cells/well were added to 384-well microtiter plates using a multichannel pipette (Rainin). After 2 hours at 37° C., compounds (0-100 μM) were added to cells in duplicate or triplicate in a final concentration of 1% DMSO. DMSO was used as the negative control. Following compound incubation at 37° C. for ˜1 hr, harvested luciferase-expressing P. berghei ANKA sporozoites were added to the plates at a density of 3,000 sporozoites/well. P. berghei ANKA sporozoites were obtained from harvesting the salivary glands of infected A. stephensi mosquitoes. The plates were spun for 10 min at 1,000 rpm, and then incubated at 37° C. for ˜45 hrs. […] After ˜45 hours at 37° C., liver cell viability was assessed using CellTiter-Fluor (Promega) and then parasite load was determined using Bright-Glo (Promega). The relative fluorescence and luminescence signal intensity of each well was evaluated with an EnVision System. The luminescence signal in the presence of compounds was normalized to the negative control (DMSO). Dose-response analysis was performed with GraphPad Prism to yield the reported EC50 values.
(§2) Anti-Plasmodium activity was evaluated in the parasite's liver stage using a previously reported high-throughput assay. In this assay, luciferase-expressing P. berghei (murine) parasites are used to infect human hepatoma cells (HepG2) and parasite load is assessed with a luminometer subsequent to evaluating HepG2 viability using a commercially available quantification kit that measures intracellular protease activity.
(§3) Specifically, their ability to inhibit P. berghei infection in two human hepatoma cell lines (HepG2 and Huh7) as well as cytotoxicity against HepG2 and Huh7 cells was determined as described above. Liver cell cytotoxicity was evaluated with two different commercially available assays, one that tests for intracellular protease activity with a fluorescence reporter and another that relies on the luminescent detection of total ATP.

Series [1] deals with P. berghei. In words: Liver stage parasite load, luciferase-expressing P. berghei in HepG2 cells. It counts as cell-based, Plasmodium berghei ANKA. The following applies: HepG2 host cells. The procedure: as §1, §2, §3
Another series concerns Huh7 cells. Briefly: Huh7 cell viability / cytotoxicity. It is filed as cell-based, human. The procedure:
as §1, with “After 2 hours at 37° C., compounds (0-100 μM) were added to cells in duplicate or triplicate in a final concentration of 1% DMSO.” left out
as §3

Series [2] concerns P. berghei. In words: Liver stage parasite load, luciferase-expressing P. berghei in Huh7 cells. It is filed as cell-based, Plasmodium berghei ANKA. The conditions noted are these: Huh7 host cells, read-out: IC50 Liver state (Huh7). As for the experimental part:
as §1, §3

Where [3] appears, read: Plasmodium berghei, HepG2, parasite load.
Setting [4] is: GFP-PfPK9, Kd calculated from EC50 of ATP pull-down dose-response, read-out: Kd, app.
The mark [5] stands for this setting: Plasmodium berghei, Huh-7, parasite load.

Chain of GFP-PfPK9 (Q8IEG4 entry or part of it): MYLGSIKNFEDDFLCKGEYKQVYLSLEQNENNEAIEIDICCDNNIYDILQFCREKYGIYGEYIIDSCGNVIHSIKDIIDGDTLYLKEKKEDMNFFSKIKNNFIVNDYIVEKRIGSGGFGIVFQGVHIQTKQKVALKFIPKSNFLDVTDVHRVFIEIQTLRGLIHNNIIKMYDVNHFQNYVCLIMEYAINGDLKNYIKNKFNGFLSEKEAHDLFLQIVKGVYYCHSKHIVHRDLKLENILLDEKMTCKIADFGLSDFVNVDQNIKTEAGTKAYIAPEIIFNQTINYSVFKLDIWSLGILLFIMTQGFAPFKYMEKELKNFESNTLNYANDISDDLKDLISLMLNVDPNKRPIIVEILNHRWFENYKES

In the case of `Nc1ncnc2c1ncn2[C@@H]1O[C@H](COP(=O)(O)OP(=O)(O)OP(=O)(O)O)[C@@H](O)[C@H]1O` [ATP, reference compound], the Kd on GFP-PfPK9 (native substrate, read-out: apparent Kd of ATP for GFP-PfPK9) was around 400 µM.

For the molecule `NC(=O)c1cccc(C(=O)/N=c2\[nH]c3cc(Br)ccc3s2)c1` [HS-232], the “activity / potency in TAK1 kinase assay” value at TAK1-TAB1 is reported as “did not show activity”.

Consider `CCCn1/c(=N/C(=O)c2cccc(C(N)=O)c2)[nH]c2ccc(/C=C/C(=O)O)cc21` [HS-233], for which, at TAK1-TAB1, the “activity / potency in TAK1 kinase assay” value was “slight reduction in potency”.

For the molecule `CCCn1/c(=N/C(=O)c2cccc(C(N)=O)c2)[nH]c2cc(/C=C/C(=O)O)ccc21` [HS-234], the “activity / potency in TAK1 kinase assay” value on TAK1-TAB1 is recorded as “slight reduction in potency”.

Take `CCCn1/c(=N/C(=O)c2cccc(C(N)=O)c2)[nH]c2cc(/C=C/C(=O)OC)ccc21` [HS-235]: the “activity / potency in TAK1 kinase assay” value at TAK1-TAB1 was “slight reduction in potency”.

On to `CCCn1c(NC(=O)c2nn(-c3ccccc3)cc2OC)nc2ccccc21` [compound 2], for which the “cytotoxic effect on cell viability vs DMSO control” value in the series with HepG2 cells (HepG2, 30 μM) is recorded as “significant cytotoxic effect”; with Huh7 cells (30 μM), “significant cytotoxic effect”. Moreover, the half-maximal inhibitory concentration (IC50) with P. berghei [1] (setting [3]) was determined as 4.5 µM; in the series with P. berghei [2] (setting [5]) it was 0.09 µM. The Kd at GFP-PfPK9 (setting [4]) was ~7 µM and 7 µM.

Turning to `CCCn1c(NC(=O)c2cncn2-c2ccc(F)cc2)nc2ccccc21` [compound 3], the “cytotoxicity in HepG2 cells” value with HepG2 cells (concentration not given) is listed as “moderate cytotoxicity”. The IC50 was determined as 7.3 µM with P. berghei [1] (setting [3]) and 4 µM in the series with P. berghei [2] (setting [5]). Moreover, on GFP-PfPK9 (setting [4]), the Kd was 0.6 µM.

For `O=C(Nc1cccc2cnccc12)C1CCCN(c2cnccn2)C1` (stereo not drawn) [compound 4], the “effect on liver cell viability” value is listed as “neither compound 4 or 5 had any significant effects on cell viability” in the series on HepG2 cells (HepG2, concentrations up to 200 μM) and “neither compound 4 or 5 had any significant effects on cell viability” in the series with Huh7 cells (concentrations up to 200 μM). Further, the IC50 in the series with P. berghei [1] (setting [3]) was found to be 55 µM; with P. berghei [1] (parasite load), 54.5 µM; with P. berghei [2] (setting [5]), 33 µM; in the series with P. berghei [2] (parasite load), 33.3 µM. Further, the Kd on GFP-PfPK9 (setting [4]) is 3.2 µM.
